What was measured:
[1] = PAMPA‐GIT; assay type: in vitro ADME; conditions: PAMPA-GIT; for Fa exp. / Papp: standard drugs used as control (n = 2); for Classification: standard drugs used as control; for Papp: read-out: Pe experimental
Method: (§1) The lipid mixture that impregnates the filter has a different constitution for the permeability tests for the BBB (brain lipid from pig extract in n‐dodecane) and the GIT (L‐α soy phosphatidylcholine in n‐dodecane). The optical density values obtained in the reading at each selected wavelength, for each of the compounds, were analyzed in comparison with the values of several controls within a calibration curve (≥ 7 drugs). In the case of the BBB, these values were used to elaborate an equation and determine the permeability coefficient (Pe), while GIT used absorbed fraction (Fa%).

[2] = PAMPA-GIT, standard drugs; literature value, ref not given; cited from earlier work
[3] = PAMPA‐BBB; assay type: in vitro ADME; conditions: PAMPA-BBB; for Classification: standard drugs used as control
Method: as §1

Fa exp. [1]	Papp [1]	Papp ([3]; standard drugs used as control (n = 2), read-out: Pe experimental)	Structure (SMILES)	Fa lit. [2]	Classification [3]	Classification [1]	Pe literature [2]
1.70%	–	–	Nc1nc2c(ncn2COCCO)c(=O)[nH]1 [Acyclovir]	–	–	–	–
2.26%	–	–	CC(C)NCC(O)COc1ccc(CC(N)=O)cc1 (stereo not shown) [Atenolol]	5.2%	–	–	–
–	–	–	Cn1c(=O)c2c(ncn2C)n(C)c1=O [Caffeine, reference compound]	–	CNS -	–	–
1.37%	0.67 ×10⁻⁶ cm/s	–	CO/N=C(\C(=O)N[C@@H]1C(=O)N2C(C(=O)O)=C(CSc3nc(=O)c(=O)[nH]n3C)CS[C@H]12)c1csc(N)n1 [Ceftriaxone]	1%	–	Low (low permeability (0%–29%))	0.10 10^-6 cm s^-1
99.31%	13.1 ×10⁻⁶ cm/s	–	O=C(O)Cc1ccccc1Nc1c(Cl)cccc1Cl [Diclofenac]	100%	–	High (high intestinal permeability (70%–100%))	12.50 10^-6 cm s^-1
–	–	0.56 ×10⁻⁶ cm/s	CCn1cc(C(=O)O)c(=O)c2cc(F)c(N3CCNCC3)nc21 [Enoxacin, reference compound]	–	CNS +	–	–
